What was measured:
[1] = test system: patients with scleredema diabeticorum; experiment: Clinical oral treatment of patients with scleredema diabeticorum, skin thickness by B-ultrasound; format: in vivo, human; settings: for skin thickness measured by B-ultrasound: back skin
Excerpt: FIG. 1 is a B-ultrasonography of a patient before medication (a and b are different parts of the affected skin).
1. Mode of administration: oral, tranilast 0.1 g, 3 times a day, every 3 months for a course of treatment, a total of two courses.

experimental asthma = settings: rats; cited from earlier work
fibroblast = experiment: Secretion and synthesis of mucin by fibroblast; format: cell-based; settings: initially found
[2] = test system: IgE antibody-induced cutaneous anaphylaxis; settings: rats; cited from earlier work
type I collagen mRNA = settings: human dermal fibroblasts; cited from earlier work
[3] = 3 patients, tranilast capsule 0.1, 3 times a day orally, after 3 months
[4] = patients with scleredema diabeticorum, after 3 months of application

## COc1ccc(/C=C/C(=O)Nc2ccccc2C(=O)O)cc1OC [tranilast]
[1]; [3]
  local skin erythema: subsided significantly
  uncomfortable symptom of conscious hardening: significantly relieved
[1]; clinical results
  therapeutic effect on scleredema diabeticorum: good therapeutic effect
[1]; patient Example 1, person, after 3 months of oral administration, before 6.5 mm
  skin thickness measured by B-ultrasound: 6 mm
[1]; patient Example 2, person, 0.1 three times a day, after 3 months, before 8 mm
  skin thickness measured by B-ultrasound: 6 mm
[1]; patient Example 3, person, 0.1 three times a day, after 3 months, before 8.5 mm
  skin thickness measured by B-ultrasound: 5.9 mm
[1]; patient, after 3 months of medication, before medication 3.6 mm
  thickness of the surrounding skin (B-ultrasonography): 3.0 mm
[1]; patient, after 3 months of medication, before medication about 7.5 mm
  thickness of the thickest part of skin on the right side (back of the neck, B-ultrasonography): about 6.3 mm
[1]; patient, after 3 months of medication, before medication about 8.7 mm
  thickness of the thickest part of the skin on the left side (back of the neck, B-ultrasonography): about 6.8 mm
[1]; patient, after 3 months of treatment, before treatment 7.8 to 8.7 mm
  reduction of maximum skin thickness (B-ultrasound): 2 mm
[1]; [4]
  adverse reactions: no significant adverse reactions were observed
  symptoms in clinical practice: significantly relieved
  thickness of the skin detected by B-ultrasound: significantly thinner
[1]; several further cases
  skin change in further treated cases: skin thinning
[1]; tranilast capsule 0.1, 3 times a day orally, 3 months
  blood routine examination, routine urine examination, and biochemical detection: no obvious abnormalities
Experimental asthma
  effect on experimental asthma: significant inhibitory effect
fibroblast
  secretion and synthesis of mucin by fibroblast: inhibiting
[2]
  effect on IgE antibody-induced cutaneous anaphylaxis: significant inhibitory effect
Type I collagen mRNA
  TGF-β-induced upregulation of type I collagen mRNA expression and basal level of type I collagen mRNA: able to suppress
